{
  "source": "patent US20160045513A1",
  "about": "“ISOXAZOLE COMPOUND FOR THE TREATMENT OF CANCER” (Novartis AG, priority 2007, published 2016)",
  "key": {"CXF 1729": {"test_system": "CXF 1729", "assay": "clonogenic assay, human tumor xenografts in vitro", "assay_type": "cell-based", "conditions": "Colon, CXF 1729, Carcinoma, soft agar, read-out: IC50 (nM), colony formation", "description": "(§1) The anticancer activity of 5-(2,4-Dihydroxy-5-isopropyl-phenyl)-4-(4-morpholin-4-ylmethyl-phenyl)-isoxazole-3-carboxylic acid ethylamide is evaluated in 30 human tumor xenografts in vitro using a clonogenic assay. In this assay, human cells derived from cancer patients are evaluated for the capacity of 5-(2,4-Dihydroxy-5-isopropyl-phenyl)-4-(4-morpholin-4-ylmethyl-phenyl)-isoxazole-3-carboxylic acid ethylamide to inhibit the formation of 3 dimensional colonies. […] The tumor xenografts which have never been cultured in cell culture plastic dishes are isolated from nude mice. Tumor cell suspensions are prepared and incubated in 24 well plates containing layers of soft agar. Under these conditions a special subpopulation of cells selectively grows to colonies. 5-(2,4-Dihydroxy-5-isopropyl-phenyl)-4-(4-morpholin-4-ylmethyl-phenyl)-isoxazole-3-carboxylic acid ethylamide was tested in 6 concentrations up to […]. The tumor test panel comprises 1 to 6 models of 10 different human tumor or cancer types, which were bladder cancer, colon, liver, non small cell lung (adeno, squamous epithelium and large cell), small cell lung, mammary, ovary, pancreatic, melanoma and pleuramesothelioma. Antitumor effects are recorded as inhibition of colony formation in relation to untreated controls. Further information on the method has been published (Burger et al., 2004; Fiebig et al., 2004; Smith et al., 2005).\n(§2) The cells are continually exposed to 5-(2,4-Dihydroxy-5-isopropyl-phenyl)-4-(4-morpholin-4-ylmethyl-phenyl)-isoxazole-3-carboxylic acid ethylamide and colony formation is determined."}, "CXF 609": {"test_system": "CXF 609", "assay": "clonogenic assay, human tumor xenografts in vitro", "assay_type": "cell-based", "conditions": "Colon, CXF 609, Adeno carcinoma, soft agar, read-out: IC50 (nM), colony formation", "description": "as §1, §2"}, "LXFA 297": {"test_system": "LXFA 297", "assay": "clonogenic assay, human tumor xenografts in vitro", "assay_type": "cell-based", "conditions": "Lung, non-small cell, LXFA 297, Adeno carcinoma, soft agar, read-out: IC50 (nM), colony formation", "description": "as §1, §2"}, "LXFA 526": {"test_system": "LXFA 526", "assay": "clonogenic assay, human tumor xenografts in vitro", "assay_type": "cell-based", "conditions": "Lung, non-small cell, LXFA 526, Adeno carcinoma, soft agar, read-out: IC50 (nM), colony formation", "description": "as §1, §2"}, "LXFS 615": {"test_system": "LXFS 615", "assay": "clonogenic assay, human tumor xenografts in vitro", "assay_type": "cell-based", "conditions": "Lung, small cell, LXFS 615, Small cell lung carcinoma, soft agar, read-out: IC50 (nM), colony formation", "description": "as §1, §2"}, "LXFS 650": {"test_system": "LXFS 650", "assay": "clonogenic assay, human tumor xenografts in vitro", "assay_type": "cell-based", "conditions": "Lung, small cell, LXFS 650, Small cell lung carcinoma, soft agar, read-out: IC50 (nM), colony formation", "description": "as §1, §2"}, "MAXF 401": {"test_system": "MAXF 401", "assay": "clonogenic assay, human tumor xenografts in vitro", "assay_type": "cell-based", "conditions": "MAXF401, Breast, MAXF 401, Pap. adeno carcinoma, soft agar, read-out: IC50 (nM), colony formation", "description": "as §1, §2"}, "MEXF 462": {"test_system": "MEXF 462", "assay": "clonogenic assay, human tumor xenografts in vitro", "assay_type": "cell-based", "conditions": "Melanoma, MEXF 462, Amelanotic melanoma, soft agar, read-out: IC50 (nM), colony formation", "description": "as §1, §2"}, "MEXF 989": {"test_system": "MEXF 989", "assay": "clonogenic assay, human tumor xenografts in vitro", "assay_type": "cell-based", "conditions": "Melanoma, MEXF 989, Amelanotic melanoma, soft agar, read-out: IC50 (nM), colony formation", "description": "as §1, §2"}, "PAXF 1657": {"test_system": "PAXF 1657", "assay": "clonogenic assay, human tumor xenografts in vitro", "assay_type": "cell-based", "conditions": "Pancreas, PAXF 1657, Adeno carcinoma, soft agar, read-out: IC50 (nM), colony formation", "description": "as §1, §2"}, "BT-474 xenograft": {"test_system": "BT-474 xenograft", "assay": "antitumor effect in the human breast cancer model BT-474", "assay_type": "in vivo, mouse", "conditions": "for T/C (%) / ΔTumor volume (mm^3): qw, i.v., 21 days treatment; for ΔTumor volume (mm^3): mean ±SEM", "description": "The estrogen receptor positive cell line BT-474 was initially isolated from a human breast ductal carcinoma established from a solid, invasive ductal carcinoma of the breast obtained from a person (ATCC number HTB-20). The cells are grown in DMEM high glucose (4.5 g/l) supplemented with 10% FCS, […] and 1% sodium pyruvate. In preparation for cell inoculation, each mouse is subcutaneously implanted on the upper dorsal side with a 17β-Estradiol pellet (25 μg/day; 90 day release) using a trocar needle. BT-474 cells (5×10̂6) are injected in 200 μl Matrigel:HBSS (1:1 vol) (BD MatrigelTM Basement Membrane Matrix). The injection site is subcutaneously in the right flank. […] Tumor growth is monitored at regular intervals. The xenograft tumor sizes are measured manually with calipers and the tumor volume is estimated using the formula: (W×L×H×π/6), where width (W), height (H) and length (L) are the three largest diameters. Results are presented as mean ±SEM. Tumor data are analyzed by ANOVA with post hoc Dunnet's test for comparison of treatment versus control group. As a measure of efficacy the % T/C value is calculated at the end of the experiment according to: (Δtumor volumetreated/Δtumor volumecontrol)*100 where Δtumor volumes represent the mean tumor volume on the evaluation day minus the mean tumor volume at the start of the experiment. The antitumor effect of AUY922 is evaluated in the BT-474 xenograft model. In this study, the treatment period is 21 days. Each group consists of eight tumor bearing animals. At the end of the study, the tumor sizes in the treatment groups are compared to those of the vehicle treated groups and the effect is expressed as % T/C."}, "BN472 xenograft": {"test_system": "BN472 xenograft", "assay": "antitumor effect in the rat breast cancer model BN-472", "assay_type": "in vivo", "conditions": "for T/C (%) / ΔTumor volume (mm^3): qw, i.v.; for ΔTumor volume (mm^3): mean ±SEM", "description": "The transplantable rat breast cancer tumor BN472 is serially passaged as fragments in female syngeneic Brown Norway rats. The injection site is orthotopically in the mammary fat pad. Treatment with AUY922 is initiated when the average tumor volume reaches approximately 100 mm^3. Tumor growth is monitored at regular intervals. The xenograft tumor sizes are measured manually with calipers and the tumor volume is estimated using the formula: (W×L^2×π/6), where width (W) and height (H) are the two largest diameters. Results are presented as mean ±SEM. Tumor data were analyzed by ANOVA with post hoc Dunnet's test for comparison of treatment versus control group. As a measure of efficacy the % T/C value is calculated at the end of the experiment according to: (Δtumor volumetreated/Δtumor volumecontrol)*100 where Δtumor volumes represent the mean tumor volume on the evaluation day minus the mean tumor volume at the start of the experiment. The antitumor effect of AUY922 is evaluated in the BN472 xenograft model. Each group consists of seven tumor bearing animals. At the end of the study, the tumor sizes in the treatment groups are compared to those of the vehicle treated groups and the effect is expressed as %T/C."}},
  "data": [
    {"smiles": "CCNC(=O)c1noc(-c2cc(C(C)C)c(O)cc2O)c1-c1ccc(CN2CCOCC2)cc1", "note": "[AUY922, 5-(2,4-Dihydroxy-5-isopropyl-phenyl)-4-(4-morpholin-4-ylmethyl-phenyl)-isoxazole-3-carboxylic acid ethylamide]", "values": [
      {"measurement": "IC50", "setting": "CXF 1729", "value": 467, "unit": "nM"},
      {"measurement": "IC50", "setting": "CXF 609", "value": 55, "unit": "nM"},
      {"measurement": "IC50", "setting": "LXFA 297", "value": 28, "unit": "nM"},
      {"measurement": "IC50", "setting": "LXFA 526", "value": 5, "unit": "nM"},
      {"measurement": "IC50", "setting": "LXFS 615", "value": 30, "unit": "nM"},
      {"measurement": "IC50", "setting": "LXFS 650", "value": 2, "unit": "nM"},
      {"measurement": "IC50", "setting": "MAXF 401", "value": 78, "unit": "nM"},
      {"measurement": "IC50", "setting": "MEXF 462", "value": 24, "unit": "nM"},
      {"measurement": "IC50", "setting": "MEXF 989", "value": 2, "unit": "nM"},
      {"measurement": "IC50", "setting": "PAXF 1657", "value": 39, "unit": "nM"},
      {"measurement": "T/C (%)", "setting": "BT-474 xenograft; 8.3 mg/kg", "value": 43, "unit": "%"},
      {"measurement": "ΔTumor volume (mm^3)", "setting": "BT-474 xenograft; 8.3 mg/kg", "value": "229 ± 73", "unit": "mm^3"},
      {"measurement": "T/C (%)", "setting": "BT-474 xenograft; 17 mg/kg", "value": 9, "unit": "%"},
      {"measurement": "ΔTumor volume (mm^3)", "setting": "BT-474 xenograft; 17 mg/kg, *P < 0.05", "value": "46 ± 27* mm^3"},
      {"measurement": "T/C (%)", "setting": "BT-474 xenograft; 25 mg/kg", "value": 3, "unit": "%"},
      {"measurement": "ΔTumor volume (mm^3)", "setting": "BT-474 xenograft; 25 mg/kg, *P < 0.05", "value": "15 ± 23* mm^3"},
      {"measurement": "reduction of tumor sizes versus vehicle", "setting": "BT-474 xenograft; once per week at 17-25 mg/kg", "value": "Statistically significant reduction of tumor sizes"},
      {"measurement": "T/C (%)", "setting": "BN472 xenograft; 25 mg/kg", "value": 78, "unit": "%"},
      {"measurement": "ΔTumor volume (mm^3)", "setting": "BN472 xenograft; 25 mg/kg", "value": "4357 ± 1338", "unit": "mm^3"},
      {"measurement": "T/C (%)", "setting": "BN472 xenograft; 50 mg/kg", "value": 21, "unit": "%"},
      {"measurement": "ΔTumor volume (mm^3)", "setting": "BN472 xenograft; 50 mg/kg, *P < 0.05", "value": "1148 ± 152* mm^3"},
      {"measurement": "reduction of tumor sizes versus vehicle", "setting": "BN472 xenograft; once per week at 50 mg/kg", "value": "Statistically significant reduction of tumor sizes"}
    ]}
  ]
}
